Test system: 276233-004-R-J1-PDC KRAS spheroids with HUVEC/MSC, viability
Test: Anticancer human tumor 276233-004-R-J1-PDC patient-derived colon adenocarcinoma cell line growth inhibition [KRAS2]
Settings: for viability, T/C: stronger effect = lower value
Excerpt: Multicellular complex tumor spheroid response to RAS pathway inhibitors in combination with a targeted agents in patient-derived cell lines with oncogenic KRAS variants from multiple cancer types
A high-throughput screen of multi-cell type tumor spheroids was designed to identify active combinations of targeted small molecules and KRAS pathway inhibitors. Complex spheroids include a stromal component modeled by human endothelial cells (HUVEC) and fibroblasts modeled by human mesenchymal stem cells (MSCs). The concentration ranges selected for each drug and investigational agent were based upon clinically achievable concentrations if the clinical Cmax of the agent was known.
Compounds. The drugs and investigational agents: BI-3406 (NSC825286), BAY-293 (NSC824723), batoprotafib (TNO155; NSC825523), sotorasib (AMG 510; NSC818433), MRTX1257 (NSC819558), elimusertib (BAY 1895344; NSC800525), molibresib (GSK525762; NSC774829), temuterkib (LY3214996; NSC803410), venetoclax (NSC766270), alisertib (NSC759677), olaparib (NSC753686), talazoparib (NSC767125), erdafitinib (NSC781556), ipatasertib (NSC767898), cabozantinib (NSC761068), nintedanib (NSC756659), abemaciclib (NSC768073), docetaxel (NSC628503), trametinib (NSC758246), and sapanisertib (NSC764658) were obtained from the National Cancer Institute (NCI) Developmental Therapeutics Program Chemical Repository. The FDA-approved anticancer drug set is available from the Developmental Therapeutics Program. […] The stock solutions were prepared in dimethyl sulfoxide (DMSO, Sigma-Aldrich, St. Louis, MO, cat. D2650) at 800-fold the tested concentration and stored at -70 degrees C prior to their use. All drugs and investigational agents were tested over a range starting from a high concentration at or near the clinical Cmax and decreasing in half-log increments. If the clinical Cmax for an agent had not been determined, the highest concentration tested was 10 microM.
Cell Culture. All cells were maintained in an incubator at 37 degrees C and 5% CO2 with 95% humidity. The PDC lines were cultured according to standard operating procedures established by the NCI PDMR (https://pdmr.cancer.gov/sops/default.htm). Briefly, all PDCs were thawed and cultured in Matrigel-coated flasks prepared with a working solution of 1X Ham's F-12 nutrient mix, without supplementation (Invitrogen, Waltham, MA, cat. 11765054), 100 U/mL penicillin-streptomycin (Invitrogen, cat. 15140122), and 2.5% Matrigel (Corning Inc., Corning, NY, cat. 354248) for the first three passages. All PDCs were cultured in complete DMEM/F-12 media containing advanced DMEM/F-12 (Invitrogen, cat. 12634028), 4.9% defined fetal bovine serum, heat inactivated (HyClone Laboratories Inc., Logan, UT, cat. SH30070.03HI), 389 ng/mL hydrocortisone (Sigma-Aldrich, cat. H4001), 9.7 ng/mL human EGF recombinant protein (Invitrogen, cat. PHG0313), 23.4 microg/mL adenine (Sigma-Aldrich, cat. A2786), 97.3 U/mL penicillin-streptomycin (Invitrogen, cat. 15140122), 1.9 mM L-glutamine (Invitrogen, cat. 25030081), and 9.7 microM Y-27632 dihydrochloride (Tocris Bioscience, Bristol, United Kingdom, cat. 1254). The PDCs were cultured in complete DMEM/F12 media without 9.7 microM Y-27632 dihydrochloride for at least two passages prior to the screen. The established cell line HOP-62 was cultured in RPMI 1640 medium, HEPES (Invitrogen, cat. 22400105) with 10% defined fetal bovine serum (HyClone Laboratories Inc., cat. SH30070.03) and 2 mM L-glutamine (Invitrogen, cat. 25030081). The pooled donor HUVEC were cultured in endothelial cell growth medium 2 (PromoCell, Heidelberg, Germany, cat. C-22011) and the hMSC were cultured in mesenchymal stem cell growth medium 2 (PromoCell, cat. C-28009). For all experiments, HUVEC and hMSC were used at passages </=5, while the malignant cell lines were used at passages </=15. […]

[1] = curve of first compound, second compound 0.1 µM
[2] = curve of first compound, second compound 0.316 µM
[3] = curve of first compound, second compound 1 µM
[4] = curve of first compound, second compound 3.16 µM
[5] = curve of first compound, second compound 10 µM
[6] = second compound 0.1 µM, first compound 0.01 µM
[7] = second compound 0.1 µM, first compound 0.0316 µM
[8] = second compound 0.1 µM, first compound 0.1 µM
[9] = second compound 0.1 µM, first compound 0.316 µM
[10] = second compound 0.1 µM, first compound 1 µM
[11] = second compound 0.1 µM, first compound 3.16 µM
[12] = second compound 0.316 µM, first compound 0.01 µM
[13] = second compound 0.316 µM, first compound 0.0316 µM
[14] = second compound 0.316 µM, first compound 0.1 µM
[15] = second compound 0.316 µM, first compound 0.316 µM
[16] = second compound 0.316 µM, first compound 1 µM
[17] = second compound 0.316 µM, first compound 3.16 µM
[18] = second compound 1 µM, first compound 0.01 µM
[19] = second compound 1 µM, first compound 0.0316 µM
[20] = second compound 1 µM, first compound 0.1 µM
[21] = second compound 1 µM, first compound 0.316 µM
[22] = second compound 1 µM, first compound 1 µM
[23] = second compound 1 µM, first compound 3.16 µM
[24] = second compound 3.16 µM, first compound 0.01 µM
[25] = second compound 3.16 µM, first compound 0.0316 µM
[26] = second compound 3.16 µM, first compound 0.1 µM
[27] = second compound 3.16 µM, first compound 0.316 µM
[28] = second compound 3.16 µM, first compound 1 µM
[29] = second compound 3.16 µM, first compound 3.16 µM
[30] = second compound 10 µM, first compound 0.01 µM
[31] = second compound 10 µM, first compound 0.0316 µM
[32] = second compound 10 µM, first compound 0.1 µM
[33] = second compound 10 µM, first compound 0.316 µM
[34] = second compound 10 µM, first compound 1 µM
[35] = second compound 10 µM, first compound 3.16 µM
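Further: cells exposed to agents for seven days before viability read.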
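Wherever viability, T/C is given: 100% = DMSO vehicle control wells and lower values mean fewer viable cells.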

SMILES	IC50 [1] [nM]	IC50 [2] [nM]	IC50 [3] [nM]	IC50 [4] [nM]	IC50 [5] [nM]	viability, T/C [6] [%]	viability, T/C [7] [%]	viability, T/C [8] [%]	viability, T/C [9] [%]	viability, T/C [10] [%]	viability, T/C [11] [%]	viability, T/C [12] [%]	viability, T/C [13] [%]	viability, T/C [14] [%]	viability, T/C [19] [%]	viability, T/C [20] [%]	viability, T/C [25] [%]	viability, T/C [26] [%]	viability, T/C [31] [%]	viability, T/C [32] [%]	further results
CC(=O)OC12COC1CC(O)C1(C)C(=O)C(O)C3=C(C)C(OC(=O)C(O)C(NC(=O)OC(C)(C)C)c4ccccc4)CC(O)(C(OC(=O)c4ccccc4)C21)C3(C)C (stereo not given) + COc1cc2nc(C)nc(NC(C)c3cc(N)cc(C(F)(F)F)c3)c2cc1OC1CCOC1	> 3160	> 3160	> 3160	> 3160	> 3160	86.8	75.9	83.1	91.8	86.1	94	75.1	80.7	72	73.3	82	70.5	58.9	61.2	73.3	viability, T/C [15]: 65.4%; viability, T/C [16]: 78.3%; viability, T/C [17]: 71.7%; viability, T/C [18]: 73.4%; viability, T/C [21]: 76.4%; viability, T/C [22]: 92.2%; viability, T/C [23]: 78.5%; viability, T/C [24]: 78.3%; viability, T/C [27]: 61.2%; viability, T/C [28]: 69.3%; viability, T/C [29]: 66.3%; viability, T/C [30]: 64.3%; viability, T/C [33]: 72.7%; viability, T/C [34]: 78.8%; viability, T/C [35]: 77.8%
CC1(C)CCC(CN2CCN(c3ccc(C(=O)NS(=O)(=O)c4ccc(NCC5CCOCC5)c([N+](=O)[O-])c4)c(Oc4cnc5[nH]ccc5c4)c3)CC2)=C(c2ccc(Cl)cc2)C1																					viability, T/C (compound 0.0316 µM): 93.5% [middle of 5 runs]; viability, T/C (compound 0.1 µM): 88.8% [middle of 5 runs]; viability, T/C (compound 0.316 µM): 102% [middle of 5 runs]; viability, T/C (compound 1 µM): 93.4% [middle of 5 runs]; IC50 (curve of compound): > 10000 nM
CCNC(=O)CC1N=C(c2ccc(Cl)cc2)c2cc(OC)ccc2-n2c(C)nnc21 (stereo not given) + CNCc1ccccc1-c1csc(C(C)Nc2nc(C)nc3cc(OC)c(OC)cc23)c1	> 10000	> 10000	> 10000	< 31.6	< 31.6		86.7	84.3	68.2	68.3	72.8		88.2	82.8	87.3	71.2	0.46	0.86	0.24	1.77	viability, T/C (second compound 0.1 µM, first compound 10 µM): 54.4%; viability, T/C [15]: 85.5%; viability, T/C [16]: 73.5%; viability, T/C [17]: 72.7%; viability, T/C (second compound 0.316 µM, first compound 10 µM): 67.1%; viability, T/C [21]: 67.2%; viability, T/C [22]: 61%; viability, T/C [23]: 56.8%; viability, T/C (second compound 1 µM, first compound 10 µM): 66.3%; viability, T/C [27]: 2.72%; viability, T/C [28]: 0.85%; viability, T/C [29]: 2.19%; viability, T/C (second compound 3.16 µM, first compound 10 µM): 1.93%; viability, T/C [33]: 0.22%; viability, T/C [34]: 0.26%; viability, T/C [35]: 0.43%; viability, T/C (second compound 10 µM, first compound 10 µM): 0.23%
CC(C)n1nc(-c2ccc3oc(N)nc3c2)c2c(N)ncnc21 + C=CC(=O)N1CCN(c2nc(=O)n(-c3c(C)ccnc3C(C)C)c3nc(-c4c(O)cccc4F)c(F)cc23)C(C)C1	> 100	27.1	29.5	> 100	> 100	63.4	50.8	56.2				57.2	45.4	49.8	48.4	49.7	51	51.5	54.9	58	viability, T/C (second compound 0.1 µM, first compound 0.000316 µM): 88.4%; viability, T/C (second compound 0.1 µM, first compound 0.001 µM): 91.7%; viability, T/C (second compound 0.1 µM, first compound 0.00316 µM): 64.8%; viability, T/C (second compound 0.316 µM, first compound 0.000316 µM): 105%; viability, T/C (second compound 0.316 µM, first compound 0.001 µM): 94.3%; viability, T/C (second compound 0.316 µM, first compound 0.00316 µM): 76.6%; viability, T/C (second compound 1 µM, first compound 0.000316 µM): 94.4%; viability, T/C (second compound 1 µM, first compound 0.001 µM): 86.8%; viability, T/C (second compound 1 µM, first compound 0.00316 µM): 105%; viability, T/C [18]: 64.2%; viability, T/C (second compound 3.16 µM, first compound 0.000316 µM): 87%; viability, T/C (second compound 3.16 µM, first compound 0.001 µM): 80.4%; viability, T/C (second compound 3.16 µM, first compound 0.00316 µM): 75.8%; viability, T/C [24]: 59.2%; viability, T/C (second compound 10 µM, first compound 0.000316 µM): 88.2%; viability, T/C (second compound 10 µM, first compound 0.001 µM): 84.9%; viability, T/C (second compound 10 µM, first compound 0.00316 µM): 67.8%; viability, T/C [30]: 72%

From PubChem BioAssay AID1963873 (Molecular Pharmacology Branch, DTP, NCI, 2024)
